Experimental data from paper PMC4584933, “Establishing the pig as a large animal model for vaccine development against human cancer” (Frontiers in Genetics, 2015).

system: PBMCs; assay: In vitro peptide stimulation of porcine PBMCs, IFN-γ release assay (ELISA); assay type: cell-based, pig; set-up: key to T cell response: “x” indicates that a response was found to this given peptide at least once; details: not given

Substance | IFN-γ in positive control cultures
Staphylococcal Enterotoxin B [SEB, reference compound] | > 70 pg/mL

same assay, conditions: PBMCs of immunized pigs, 2 × 10^5/well, 5 μg/ml peptide, 67.5–70.0 h, IFN-γ ELISA; response = 2-fold increase vs day -2 and at least 25 pg/ml IFN-γ, found at least once; SLA restriction not included

Substance | T cell response
FNAIQCEDL [IDO26, porcine IDO-derived 9-11mer peptide] | x
VDGKQVELALW [RhoC52, porcine RhoC-derived 9-11mer peptide] | x
FNVLRIYLSGW [IDO29, porcine IDO-derived 9-11mer peptide] | x
LSEGLLYEGVW [IDO71, porcine IDO-derived 9-11mer peptide] | x
TYMPPAHRNF [IDO124, porcine IDO-derived 9-11mer peptide] | x
MDNSWKIFEEY [IDO76, porcine IDO-derived 9-11mer peptide] | x
FALPNPLEEL [IDO22, porcine IDO-derived 9-11mer peptide] | x
LGYITMAYVW [IDO66, porcine IDO-derived 9-11mer peptide] | x
AGFLQEMRTY [IDO1, porcine IDO-derived 9-11mer peptide] | x

system: SLA-3*04:01; assay: Peptide-MHC class I complex stability, scintillation proximity assay (SPA); set-up: species or system pig; details: biotinylated recombinant SLA heavy chain, 125I-β2m, excess unlabeled β2m, read every 40 min, number only if t1/2 ≥ 0.5 h, '-' = not stably binding
Procedure: (§1) The stability of the selected 198 peptides in complex with relevant SLA class I molecules and β2m was determined using a scintillation proximity assay (SPA), as previously described (Harndahl et al., [2011]). Briefly, biotinylated recombinant MHC class I heavy chains were attached to a streptavidin-coated scintillation microplate together with iodinated (^125I) β2m and candidate peptide resulting in a scintillation signal, which was consecutively measured every 40 min by a scintillation plate counter. The duration of this signal is directly correlated to the stability of the peptide-MHC class I-β2m complex under dissociating conditions and in the presence of excess unlabeled β2m (Harndahl et al., [2011]). Peptides with a half-life ≥ 0.5 h were selected as stable binders.

Substance | Binder (t1/2 ≥ 0.5 h): half-life of peptide-SLA-3*04:01 complex
RLRPLSYPD [RhoC45, porcine RhoC-derived 9-11mer peptide] | - (t1/2 (hours) is listed for each of the stably binding peptides (t1/2 ≥ 0.5 h))
RKNKRRRGCPI [RhoC44, porcine RhoC-derived 9-11mer peptide] | - (t1/2 (hours) is listed for each of the stably binding peptides (t1/2 ≥ 0.5 h))
KTKEGVREVF [RhoC34, porcine RhoC-derived 9-11mer peptide] | - (t1/2 (hours) is listed for each of the stably binding peptides (t1/2 ≥ 0.5 h))
QEMRTYMPP [IDO101, porcine IDO-derived 9-11mer peptide] | - (t1/2 (hours) is listed for each of the stably binding peptides (t1/2 ≥ 0.5 h))
KNKRRRGCPIL [RhoC32, porcine RhoC-derived 9-11mer peptide] | - (t1/2 (hours) is listed for each of the stably binding peptides (t1/2 ≥ 0.5 h))
ANRISAFGYLE [RhoC4, porcine RhoC-derived 9-11mer peptide] | - (t1/2 (hours) is listed for each of the stably binding peptides (t1/2 ≥ 0.5 h))
KLFFNVLRI [IDO52, porcine IDO-derived 9-11mer peptide] | - (t1/2 (hours) is listed for each of the stably binding peptides (t1/2 ≥ 0.5 h))
KGFFLVSLLV [IDO50, porcine IDO-derived 9-11mer peptide] | - (t1/2 (hours) is listed for each of the stably binding peptides (t1/2 ≥ 0.5 h))
FNVLRIYLSG [IDO28, porcine IDO-derived 9-11mer peptide] | - (t1/2 (hours) is listed for each of the stably binding peptides (t1/2 ≥ 0.5 h))
KNMDILFSFPG [IDO59, porcine IDO-derived 9-11mer peptide] | - (t1/2 (hours) is listed for each of the stably binding peptides (t1/2 ≥ 0.5 h))
MTYKNMDILFS [IDO82, porcine IDO-derived 9-11mer peptide] | - (t1/2 (hours) is listed for each of the stably binding peptides (t1/2 ≥ 0.5 h))
KALLDITSSL [IDO46, porcine IDO-derived 9-11mer peptide] | - (t1/2 (hours) is listed for each of the stably binding peptides (t1/2 ≥ 0.5 h))
ANWKKKDPS [IDO6, porcine IDO-derived 9-11mer peptide] | - (t1/2 (hours) is listed for each of the stably binding peptides (t1/2 ≥ 0.5 h))
KHFCPNVPI [RhoC28, porcine RhoC-derived 9-11mer peptide] | - (t1/2 (hours) is listed for each of the stably binding peptides (t1/2 ≥ 0.5 h))
YDRLRPLSYPD [RhoC57, porcine RhoC-derived 9-11mer peptide] | - (t1/2 (hours) is listed for each of the stably binding peptides (t1/2 ≥ 0.5 h))
KLFFNVLRIYL [IDO54, porcine IDO-derived 9-11mer peptide] | - (t1/2 (hours) is listed for each of the stably binding peptides (t1/2 ≥ 0.5 h))
RNIAIPYCKL [IDO108, porcine IDO-derived 9-11mer peptide] | - (t1/2 (hours) is listed for each of the stably binding peptides (t1/2 ≥ 0.5 h))
KMQRLAHLVL [IDO57, porcine IDO-derived 9-11mer peptide] | - (t1/2 (hours) is listed for each of the stably binding peptides (t1/2 ≥ 0.5 h))
KRRRGCPIL [RhoC33, porcine RhoC-derived 9-11mer peptide] | - (t1/2 (hours) is listed for each of the stably binding peptides (t1/2 ≥ 0.5 h))
KDPSGPMTY [IDO47, porcine IDO-derived 9-11mer peptide] | - (t1/2 (hours) is listed for each of the stably binding peptides (t1/2 ≥ 0.5 h))
MQRLAHLVL [IDO78, porcine IDO-derived 9-11mer peptide] | - (t1/2 (hours) is listed for each of the stably binding peptides (t1/2 ≥ 0.5 h))
KEGVREVFEM [RhoC27, porcine RhoC-derived 9-11mer peptide] | - (t1/2 (hours) is listed for each of the stably binding peptides (t1/2 ≥ 0.5 h))
FNVLRIYLS [IDO27, porcine IDO-derived 9-11mer peptide] | - (t1/2 (hours) is listed for each of the stably binding peptides (t1/2 ≥ 0.5 h))
RNFLHSLESG [IDO106, porcine IDO-derived 9-11mer peptide] | 30 min
ANRISAFGYL [RhoC3, porcine RhoC-derived 9-11mer peptide] | - (t1/2 (hours) is listed for each of the stably binding peptides (t1/2 ≥ 0.5 h))

system: SLA-2*04:01; assay: as above; set-up: species or system pig; details: biotinylated recombinant SLA heavy chain, 125I-β2m, excess unlabeled β2m, read every 40 min, number only if t1/2 ≥ 0.5 h, '-' = not stably binding
Procedure: as §1

Substance | Binder (t1/2 ≥ 0.5 h): half-life of peptide-SLA-2*04:01 complex
SSLHKALEVF [IDO121, porcine IDO-derived 9-11mer peptide] | - (t1/2 (hours) is listed for each of the stably binding peptides (t1/2 ≥ 0.5 h))
FSKDQFPEVY [RhoC26, porcine RhoC-derived 9-11mer peptide] | - (t1/2 (hours) is listed for each of the stably binding peptides (t1/2 ≥ 0.5 h))
FNAIQCEDL [IDO26, porcine IDO-derived 9-11mer peptide] | 0.6 h
LDWWSPMDNSW [IDO64, porcine IDO-derived 9-11mer peptide] | - (t1/2 (hours) is listed for each of the stably binding peptides (t1/2 ≥ 0.5 h))
NYHLQIVTKY [IDO93, porcine IDO-derived 9-11mer peptide] | - (t1/2 (hours) is listed for each of the stably binding peptides (t1/2 ≥ 0.5 h))
VDGKQVELALW [RhoC52, porcine RhoC-derived 9-11mer peptide] | 0.5 h
FNVLRIYLSGW [IDO29, porcine IDO-derived 9-11mer peptide] | 33.6 h
LSEGLLYEGVW [IDO71, porcine IDO-derived 9-11mer peptide] | 4.4 h
TYMPPAHRNF [IDO124, porcine IDO-derived 9-11mer peptide] | 4.7 h
MDNSWKIFEEY [IDO76, porcine IDO-derived 9-11mer peptide] | 1.9 h
EKLGLPPILVY [IDO17, porcine IDO-derived 9-11mer peptide] | - (t1/2 (hours) is listed for each of the stably binding peptides (t1/2 ≥ 0.5 h))
ENYIADIEVD [RhoC19, porcine RhoC-derived 9-11mer peptide] | - (t1/2 (hours) is listed for each of the stably binding peptides (t1/2 ≥ 0.5 h))
FALPNPLEEL [IDO22, porcine IDO-derived 9-11mer peptide] | 0.5 h
LVYADCVLANW [IDO74, porcine IDO-derived 9-11mer peptide] | - (t1/2 (hours) is listed for each of the stably binding peptides (t1/2 ≥ 0.5 h))
VFSKDQFPEVY [RhoC53, porcine RhoC-derived 9-11mer peptide] | - (t1/2 (hours) is listed for each of the stably binding peptides (t1/2 ≥ 0.5 h))
DSLENIPEKW [RhoC9, porcine RhoC-derived 9-11mer peptide] | - (t1/2 (hours) is listed for each of the stably binding peptides (t1/2 ≥ 0.5 h))
WDTAGQEDY [RhoC55, porcine RhoC-derived 9-11mer peptide] | - (t1/2 (hours) is listed for each of the stably binding peptides (t1/2 ≥ 0.5 h))
LGYITMAYVW [IDO66, porcine IDO-derived 9-11mer peptide] | 4.9 h
AGFLQEMRTY [IDO1, porcine IDO-derived 9-11mer peptide] | 0.6 h
NSWKIFEEYH [IDO90, porcine IDO-derived 9-11mer peptide] | - (t1/2 (hours) is listed for each of the stably binding peptides (t1/2 ≥ 0.5 h))
WWSPMDNSW [IDO132, porcine IDO-derived 9-11mer peptide] | - (t1/2 (hours) is listed for each of the stably binding peptides (t1/2 ≥ 0.5 h))
DNSWKIFEEY [IDO11, porcine IDO-derived 9-11mer peptide] | - (t1/2 (hours) is listed for each of the stably binding peptides (t1/2 ≥ 0.5 h))
DWWSPMDNSW [IDO13, porcine IDO-derived 9-11mer peptide] | - (t1/2 (hours) is listed for each of the stably binding peptides (t1/2 ≥ 0.5 h))
